This series relates to S. typhimurium/E. coli reverse mutation, colony counts. Nature of the series: Bacterial reverse mutation test (aka Ames test) summary data. The gist of the method:
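S. typhimurium his⁻ strains (TA97–TA1538) and E. coli WP2 uvrA pKM101 trp⁻, dosed over a range with or without rat, hamster or mouse liver S9. Preincubated 20 min at 37° C (or plate incorporation), plated in agar, incubated usually two days. Revertant colonies counted against negative controls.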
On the technique in general: In the Ames test, an excess of revertant colonies over the control signals mutagenicity.

Inconclusive results are not listed. Activity calls are given as the source filed them. The rule behind the calls is not given here.

For the compound `O=C(O)C(F)(F)C(F)(F)C(F)(F)C(F)(F)C(F)(F)C(F)(F)C(F)(F)C(F)(F)C(F)(F)F`, the outcome was “inactive; negative”. As for `[O]=[Mo](=[O])=[O]`, the outcome is “inactive; negative”. To `COP(=O)(O)O` belongs “inactive; negative”. For the compound `[CH3][Hg+]`, the outcome is “inactive; negative”. To `CS(=O)(=O)OCCCCOS(C)(=O)=O` belongs “active; positive”. To `Cc1ccc(N)c(N)c1` belongs “active; positive”; to `Nc1nc(N)nc(N)n1`, “inactive; negative”. To `Nc1c2ccccc2nc2ccccc12` belongs “active; positive”; to `C=C(C)C#N`, “inactive; negative”. Consider `O=NN1CCOCC1`, for which the outcome is “active; positive”. Next, `CN(C)c1ccc(N=Nc2ccccc2)cc1`: “active; positive”.

For `CC1CCC2CC1C2(C)C` (stereo not given), the outcome is “inactive; negative”. As for `CNC(C)Cc1ccccc1` (stereo not given), the outcome is “inactive; negative”. Next, `Cc1c(N=C=O)cccc1N=C=O`: “active; positive”.

Turning to `COP(=O)(OC)OC=C(Cl)Cl`, the outcome is “active; positive”. As to `CCCCC(CC)COC(=O)c1ccccc1C(=O)OCC(CC)CCCC` (stereo not given), the outcome is “inactive; negative”. To `O=C1CCC(=O)O1` belongs “inactive; negative”; to `c1ccc2c(c1)-c1cccc3c1c-2cc1ccccc13`, “active; positive”; to `OCc1c[nH]c2ccccc12`, “active; positive”. For `O=C1OC(=O)c2cc([N+](=O)[O-])ccc21`, the outcome was “active; positive”. Consider `Cc1ccccc1C=O`, for which the outcome is “inactive; negative”. For the compound `Nc1nc2cc(Cl)c(Cl)cc2s1`, the outcome was “inactive; negative”. With `CC1CCCCC1CO` (stereo not given), the outcome is “inactive; negative”.

For `Oc1ccccc1Cl`, the outcome is “inactive; negative”. In the case of `C[C@@H]1[C@H](O)[C@@H](C)/C=C/C=C/C=C/C=C/C=C/C=C/C=C/[C@H](O[C@@H]2O[C@H](C)[C@@H](O)[C@H](N)[C@@H]2O)C[C@@H]2O[C@](O)(C[C@@H](O)C[C@@H](O)[C@H](O)CC[C@@H](O)C[C@@H](O)CC(=O)O[C@H]1C)C[C@H](O)[C@H]2C(=O)O`, the outcome is “inactive; negative”. Regarding `COc1c2occc2cc2ccc(=O)oc12`, the outcome was “active; positive”. As to `Cc1cnc[nH]1`, the outcome was “inactive; negative”. Take `CC(C)=CCl`: the outcome was “active; positive”.

Take `CC(C)(C)OOC(=O)c1ccccc1`: the outcome was “active; positive”. In the case of `CN1C(CSCC(F)(F)F)Nc2cc(Cl)c(S(N)(=O)=O)cc2S1(=O)=O` (stereo not given), the outcome is “inactive; negative”. Turning to `NC(N)=S`, the outcome was “inactive; negative”. As to `Cl/C=C\Cl`, the outcome is “inactive; negative”.

As to `Cc1cc(=O)[nH]c(=S)[nH]1`, the outcome was “inactive; negative”. Turning to `O=[N+]([O-])c1c(Cl)c(Cl)cc(Cl)c1Cl`, the outcome was “active; weakly positive”. For the compound `O=C1Nc2ccc(Cl)cc2[C@@](C#CC2CC2)(C(F)(F)F)O1`, the outcome is “inactive; negative”. For the compound `Nc1ccc(N=Nc2ccccc2)c(N)n1`, the outcome is “active; positive”. With `O=[N+]([O-])c1ccc(NCCO)c(OCCO)c1`, the outcome is “active; positive”.

Take `C=CCO`: the outcome was “inactive; negative”. Consider `CC(CCl)OC(C)CCl` (stereo not given), for which the outcome was “active; positive”. With `Nc1ccc(Cc2ccc(N)c(Cc3ccc(N)cc3)c2)cc1`, the outcome is “active; positive”. Next, `CCCCN(CC)CC`: “inactive; negative”. As for `F`, the outcome is “inactive; negative”. Turning to `CCCCNCC`, the outcome is “inactive; negative”. `ClC(Cl)Cl`: the outcome was “inactive; negative”. With `CCOC(C)=O`, the outcome was “inactive; negative”. Take `Cc1ccc2c(c1N)C(=O)c1ccccc1C2=O`: the outcome is “active; positive”. To `Cc1cc(=O)oc2cc(O)cc(O)c12` belongs “inactive; negative”; to `CCOC(=O)CBr`, “active; positive”. For `O=CC(=O)c1ccccc1`, the outcome is “active; positive”. Turning to `CN(C)CCN(Cc1ccccc1)c1ccccn1`, the outcome is “inactive; negative”. Consider `Cc1ccc(C)c([N+](=O)[O-])c1`, for which the outcome was “active; positive”. For the compound `O=Cc1ccc(CO)o1`, the outcome is “active; weakly positive”. To `ClNc1nc(NCl)nc(NCl)n1` belongs “inactive; negative”. To `O=C1c2c(O)ccc([N+](=O)[O-])c2C(=O)c2c([N+](=O)[O-])ccc(O)c21` belongs “active; positive”; to `Cc1c(O)c(Br)c(Br)c(Br)c1Br`, “inactive; negative”; to `O=Nc1ccc(NO)cc1`, “active; positive”. On to `CSSC`, for which the outcome was “inactive; negative”. For the compound `NC(=O)c1ccccc1[N+](=O)[O-]`, the outcome was “active; positive”.

`CBr`: the outcome was “active; positive”. Regarding `OCCCCl`, the outcome was “active; positive”.

For `CC1=CC(=C(c2ccc(N)cc2)c2ccc(N)cc2)C=CC1=N`, the outcome is “active; positive”. For the compound `CCCCOC(=O)COc1cc(Cl)c(Cl)cc1Cl`, the outcome is “inactive; negative”. For `C[N+](=O)[O-]`, the outcome is “inactive; negative”. For `Cc1cn([C@H]2C=C[C@@H](CO)O2)c(=O)[nH]c1=O`, the outcome was “active; weakly positive”. With `COCOC`, the outcome was “inactive; negative”. As for `COC(=O)[C@H]1[C@H]2C[C@@H]3c4[nH]c5cc(OC)ccc5c4CCN3C[C@H]2C[C@@H](OC(=O)c2cc(OC)c(OC)c(OC)c2)[C@@H]1OC`, the outcome is “inactive; negative”. In the case of `C(CCOCC1CO1)COCC1CO1` (stereo not given), the outcome is “active; positive”. To `Nc1c(Br)cc(Br)c2c1C(=O)c1ccccc1C2=O` belongs “active; positive”.

Take `Cc1ccc([N+](=O)[O-])cc1C`: the outcome was “active; positive”. For `NC(=S)Nc1ccccc1`, the outcome is “inactive; negative”. Next, `c1ccc(N=Nc2ccccc2)cc1`: “active; positive”; `CCOC(=O)CC`: “inactive; negative”; `Cc1ccc(Nc2ccc(O)c3c2C(=O)c2ccccc2C3=O)cc1`: “inactive; negative”. In the case of `Clc1cccc(Cl)c1`, the outcome was “inactive; negative”. To `CC(O)COC(C)(C)C` (stereo not given) belongs “active; positive”; to `C[Si]12OCCN(CCO1)CCO2`, “inactive; negative”. On to `O=C(OCC1CO1)c1cccc(C(=O)OCC2CO2)c1` (stereo not given), for which the outcome was “active; positive”.

For the compound `COc1ccc(C=O)cc1`, the outcome is “inactive; negative”. For `Cc1ccc(OCC2CO2)cc1` (stereo not given), the outcome was “active; positive”. On to `CCC(C)(C)OC`, for which the outcome is “inactive; negative”. To `O=C(O)c1cc(O)c2c(c1)[C@@H]([C@H]1c3cc(C(=O)O)cc(O)c3C(=O)c3c(O[C@@H]4O[C@H](CO)[C@@H](O)[C@H](O)[C@H]4O)cccc31)c1cccc(O[C@@H]3O[C@H](CO)[C@@H](O)[C@H](O)[C@H]3O)c1C2=O` belongs “inactive; negative”; to `CCCCCCN`, “inactive; negative”. Take `Nc1ccc(S(=O)(=O)O)cc1`: the outcome was “inactive; negative”. Take `Cc1ccc(C(C)(C)C)cc1`: the outcome is “inactive; negative”. For the compound `CCN(N=O)C(N)=O`, the outcome was “active; positive”.

Turning to `C=CC(=O)OCCN(C)C`, the outcome is “inactive; negative”. To `C#CCO` belongs “active; positive”; to `COC(=O)c1ccc(C=O)cc1`, “inactive; negative”. Take `C=CC(=O)CC`: the outcome is “active; positive”. Regarding `COc1cccc(N)c1`, the outcome was “active; positive”. As to `CC(C)=O`, the outcome was “inactive; negative”. As to `CCNc1ccccc1`, the outcome is “inactive; negative”. Consider `CCSCCC(N)C(=O)O` (stereo not given), for which the outcome was “inactive; negative”. To `O[C@@H]([C@H](O)[C@H](O)CBr)[C@H](O)CBr` belongs “active; positive”; to `c1ccc(P(c2ccccc2)c2ccccc2)cc1`, “inactive; negative”. `O=[N+]([O-])c1ccc(Cl)cc1Cl`: the outcome was “active; positive”.

With `N=C1C=CC(=C(c2ccc(N)cc2)c2ccc(N)cc2)C=C1`, the outcome is “active; positive”. For `O=C1CCCCCN1`, the outcome was “inactive; negative”.

Consider `N#CC(Cl)(Cl)Cl`, for which the outcome was “active; weakly positive”. As for `CC1=C(/C=C/C(C)=C/C=C/C(C)=C/C=C/C=C(C)/C=C/C=C(C)/C=C/C2=C(C)CCCC2(C)C)C(C)(C)CCC1`, the outcome was “active; positive”. Take `O=C/C=C/O`: the outcome was “inactive; negative”. To `NCCCN` belongs “inactive; negative”; to `Cc1cc(C)cc(N)c1`, “active; weakly positive”; to `O=[N+]([O-])c1c2ccccc2cc2ccccc12`, “active; positive”. Next, `CCCC(CCC)C(=O)O`: “inactive; negative”. Take `O=C1C(c2[nH]c3ccc(S(=O)(=O)O)cc3c2O)=Nc2ccc(S(=O)(=O)O)cc21`: the outcome was “active; positive”. Turning to `Cc1c(Br)c(Br)c(Br)c(Br)c1Br`, the outcome was “inactive; negative”. In the case of `CC(C)(C)OOC(C)(C)CCC(C)(C)OOC(C)(C)C`, the outcome is “inactive; negative”. For the compound `COc1cc(-c2ccc(N=Nc3ccc4c(S(=O)(=O)O)cc(S(=O)(=O)O)c(N)c4c3O)c(OC)c2)ccc1N=Nc1ccc2c(S(=O)(=O)O)cc(S(=O)(=O)O)c(N)c2c1O`, the outcome was “active; positive”.

As for `C1CC2OC2CC1C1CO1` (stereo not given), the outcome was “active; positive”.
